Reference: ChEMBL document CHEMBL1137334 (J Med Chem, 2006)
In brackets after ≈: the same amount, converted by molar mass.

Assays:
[1] = target: 3-phosphoinositide-dependent protein kinase 1 (Homo sapiens, UniProt O15530); assay: Inhibition of PDK
[2] = Clearance in male rat at 25 mg/kg, po and 2 mg/kg, iv; type: ADME, organism-based; settings: in vivo
[3] = target: Tyrosine-protein kinase CSK (Homo sapiens, UniProt P41240); assay: Inhibition of recombinant CSK by ELISA
[4] = target: Fibroblast growth factor receptor 1 (Homo sapiens, UniProt P11362); assay: Inhibition of recombinant FGFR1 by ELISA
Sequence of Fibroblast growth factor receptor 1 (P11362 whole entry): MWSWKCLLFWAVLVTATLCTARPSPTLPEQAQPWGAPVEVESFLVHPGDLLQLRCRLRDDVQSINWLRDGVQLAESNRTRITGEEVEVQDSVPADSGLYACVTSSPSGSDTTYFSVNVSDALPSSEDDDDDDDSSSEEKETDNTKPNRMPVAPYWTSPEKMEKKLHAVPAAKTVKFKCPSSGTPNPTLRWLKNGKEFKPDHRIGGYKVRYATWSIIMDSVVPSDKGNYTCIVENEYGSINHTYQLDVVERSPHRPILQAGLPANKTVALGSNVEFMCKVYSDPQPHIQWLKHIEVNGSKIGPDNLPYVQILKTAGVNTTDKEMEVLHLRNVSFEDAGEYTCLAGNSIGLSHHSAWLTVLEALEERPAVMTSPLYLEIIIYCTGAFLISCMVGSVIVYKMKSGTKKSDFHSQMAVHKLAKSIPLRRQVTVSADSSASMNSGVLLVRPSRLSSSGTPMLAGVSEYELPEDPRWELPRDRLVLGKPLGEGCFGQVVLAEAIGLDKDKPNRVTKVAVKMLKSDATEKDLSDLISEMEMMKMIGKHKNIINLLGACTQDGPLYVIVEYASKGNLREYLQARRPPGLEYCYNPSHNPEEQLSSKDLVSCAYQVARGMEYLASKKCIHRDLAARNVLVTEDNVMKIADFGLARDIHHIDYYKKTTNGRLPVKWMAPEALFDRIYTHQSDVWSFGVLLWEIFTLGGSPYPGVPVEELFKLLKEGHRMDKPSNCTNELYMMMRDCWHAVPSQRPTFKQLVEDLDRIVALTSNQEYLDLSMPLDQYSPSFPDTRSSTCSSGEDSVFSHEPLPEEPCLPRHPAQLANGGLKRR

[5] = Half life in male dog; type: ADME, organism-based, Canis lupus familiaris; settings: male, in vivo
[6] = Inhibition of PI3K; set-up: species or system Homo sapiens
[7] = Volume of distribution in female rat at 25 mg/kg, po and 2 mg/kg, iv; type: ADME, organism-based; settings: in vivo, read-out: Vdss
[8] = target: Vascular endothelial growth factor receptor 1 (Homo sapiens, UniProt P17948); assay: Inhibition of recombinant FLT1 by ELISA
Sequence of Vascular endothelial growth factor receptor 1 (P17948 whole entry): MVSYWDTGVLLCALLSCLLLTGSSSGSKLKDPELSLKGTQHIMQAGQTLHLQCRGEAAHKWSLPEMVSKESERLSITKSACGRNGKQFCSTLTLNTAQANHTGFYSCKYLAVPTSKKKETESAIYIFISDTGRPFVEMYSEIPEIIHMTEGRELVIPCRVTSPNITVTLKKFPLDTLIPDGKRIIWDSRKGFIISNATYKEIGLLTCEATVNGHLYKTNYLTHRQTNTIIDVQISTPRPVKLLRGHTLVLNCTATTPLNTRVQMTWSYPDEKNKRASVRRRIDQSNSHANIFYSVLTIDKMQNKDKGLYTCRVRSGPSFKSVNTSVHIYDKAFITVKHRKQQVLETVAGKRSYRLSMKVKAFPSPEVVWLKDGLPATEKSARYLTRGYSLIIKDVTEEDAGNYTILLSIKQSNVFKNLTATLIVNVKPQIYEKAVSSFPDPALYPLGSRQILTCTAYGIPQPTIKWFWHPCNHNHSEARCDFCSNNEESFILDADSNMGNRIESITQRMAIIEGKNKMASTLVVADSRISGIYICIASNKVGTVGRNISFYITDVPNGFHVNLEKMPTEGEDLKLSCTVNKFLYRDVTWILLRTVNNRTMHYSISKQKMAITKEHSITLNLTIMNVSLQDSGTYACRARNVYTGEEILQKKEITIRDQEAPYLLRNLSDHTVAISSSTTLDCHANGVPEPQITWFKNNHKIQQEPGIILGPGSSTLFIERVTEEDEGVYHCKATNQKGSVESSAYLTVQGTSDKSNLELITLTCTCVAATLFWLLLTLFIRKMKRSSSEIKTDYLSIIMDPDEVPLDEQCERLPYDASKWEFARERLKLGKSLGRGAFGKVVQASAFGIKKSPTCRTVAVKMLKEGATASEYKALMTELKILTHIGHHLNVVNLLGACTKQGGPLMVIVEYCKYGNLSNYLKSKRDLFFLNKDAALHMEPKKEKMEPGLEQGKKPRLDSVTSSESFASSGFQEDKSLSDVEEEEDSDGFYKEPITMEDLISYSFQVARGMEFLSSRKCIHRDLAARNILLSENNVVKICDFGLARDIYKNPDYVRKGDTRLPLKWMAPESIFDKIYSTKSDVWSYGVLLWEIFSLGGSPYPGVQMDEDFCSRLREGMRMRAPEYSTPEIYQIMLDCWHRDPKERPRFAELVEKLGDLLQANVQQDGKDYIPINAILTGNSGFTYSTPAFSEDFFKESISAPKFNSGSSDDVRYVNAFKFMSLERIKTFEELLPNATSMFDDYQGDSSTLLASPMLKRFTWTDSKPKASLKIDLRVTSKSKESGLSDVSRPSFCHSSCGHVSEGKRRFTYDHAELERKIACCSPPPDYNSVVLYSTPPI

[9] = Dissociation constant, pKa of the basic side chain of compound; type: physicochemical
[10] = target: Platelet-derived growth factor receptor alpha (Homo sapiens, UniProt P16234); assay: Inhibition of recombinant PDGFRalpha by ELISA
[11] = Permeability from apical to basolateral side of NIH 3T3 cell; type: ADME, cell-based, NIH3T3; settings: mouse, not told; read-out: permeability
[12] = Clearance in female rat at 25 mg/kg, po and 2 mg/kg, iv; type: ADME, organism-based; settings: in vivo
[13] = (§1) Half life in rat at 25 mg/kg, po and 2 mg/kg, iv; type: ADME, organism-based; settings: in vivo
[14] = tested on: A549; assay: Inhibition of paxillin phosphorylation in A549 cells by Western blotting at 1 uM; type: functional; settings: Homo sapiens
[15] = Percent of unbound ligand in dog plasma; type: ADME, organism-based, Canis lupus familiaris
[16] = tested on: HUVEC; assay: Inhibition of VEGF-stimulated HUVEC cell growth; type: functional, cell-based; settings: Homo sapiens
[17] = tested on: K562; assay: Antiproliferative activity against huamn K562 cell line; type: functional, cell-based; settings: Homo sapiens
[18] = target: Glycogen synthase kinase-3 beta (Homo sapiens, UniProt P49841); assay: Inhibition of GSK3-beta
[19] = tested on: Calu-6; assay: Inhibition of paxillin phosphorylation in Calu-6 xenograft tumor model at 20 mg/kg/day, po; type: functional; settings: Homo sapiens
[20] = Percent of unbound ligand in human plasma; type: ADME, organism-based
[21] = Lipophilicity, log D at pH 7.4; type: physicochemical; settings: buffer
[22] = Bioavailability in male dog; type: ADME, organism-based, Canis lupus familiaris; settings: in vivo
[23] = AUC (0-24h) in mouse at 20 mg/kg, po; type: ADME, organism-based; set-up: time < 24 hr, dose 20 mg/kg, route oral; settings: plasma
[24] = Aqueous solubility at pH 7.0; type: physicochemical
[25] = Bioavailability in male rat at 25 mg/kg, po and 2 mg/kg, iv; type: ADME, organism-based; settings: in vivo
[26] = target: cAMP-dependent protein kinase (PKA) (Homo sapiens, UniProt P22694+P17612+P22612); assay: Inhibition of PKA; type: protein assay
[27] = tested on: Calu-6; assay: Inhibition of FAK phosphorylation in Calu-6 xenograft tumor model at 20 mg/kg/day, po; type: functional; settings: Homo sapiens
[28] = target: c-Jun N-terminal kinase, JNK (Homo sapiens, UniProt P45983+P53779+P45984); assay: Inhibition of JNK; type: protein assay
[29] = Bioavailability in female rat at 25 mg/kg, po and 2 mg/kg, iv; type: ADME, organism-based; settings: in vivo
[30] = Percent of unbound ligand in rat plasma; type: ADME, organism-based
[31] = tested on: A549; assay: Inhibition of A549 cell migration by microdroplet migration assay; type: functional, cell-based; settings: Homo sapiens
[32] = tested on: NIH3T3; assay: Antiproliferative activity against NIH 3T3 cells xenografted in athymic rat measured as inhibition of tumor volume at 6 mg/kg/day after 18 days; type: functional; settings: NIH3T3, 432 h
[33] = target: Aurora kinase B (Homo sapiens, UniProt Q96GD4); assay: Inhibition of recombinant Aurora B by ELISA
[34] = target: Dual specificity mitogen-activated protein kinase kinase; MEK1/2 (Homo sapiens, UniProt P36507+Q02750); assay: Inhibition of MAPKK; type: protein assay
[35] = Inhibition of Chk; set-up: species or system Homo sapiens
[36] = target: Vascular endothelial growth factor receptor 2 (Homo sapiens, UniProt P35968); assay: Inhibition of KDR
Sequence of Vascular endothelial growth factor receptor 2 (P35968 whole entry): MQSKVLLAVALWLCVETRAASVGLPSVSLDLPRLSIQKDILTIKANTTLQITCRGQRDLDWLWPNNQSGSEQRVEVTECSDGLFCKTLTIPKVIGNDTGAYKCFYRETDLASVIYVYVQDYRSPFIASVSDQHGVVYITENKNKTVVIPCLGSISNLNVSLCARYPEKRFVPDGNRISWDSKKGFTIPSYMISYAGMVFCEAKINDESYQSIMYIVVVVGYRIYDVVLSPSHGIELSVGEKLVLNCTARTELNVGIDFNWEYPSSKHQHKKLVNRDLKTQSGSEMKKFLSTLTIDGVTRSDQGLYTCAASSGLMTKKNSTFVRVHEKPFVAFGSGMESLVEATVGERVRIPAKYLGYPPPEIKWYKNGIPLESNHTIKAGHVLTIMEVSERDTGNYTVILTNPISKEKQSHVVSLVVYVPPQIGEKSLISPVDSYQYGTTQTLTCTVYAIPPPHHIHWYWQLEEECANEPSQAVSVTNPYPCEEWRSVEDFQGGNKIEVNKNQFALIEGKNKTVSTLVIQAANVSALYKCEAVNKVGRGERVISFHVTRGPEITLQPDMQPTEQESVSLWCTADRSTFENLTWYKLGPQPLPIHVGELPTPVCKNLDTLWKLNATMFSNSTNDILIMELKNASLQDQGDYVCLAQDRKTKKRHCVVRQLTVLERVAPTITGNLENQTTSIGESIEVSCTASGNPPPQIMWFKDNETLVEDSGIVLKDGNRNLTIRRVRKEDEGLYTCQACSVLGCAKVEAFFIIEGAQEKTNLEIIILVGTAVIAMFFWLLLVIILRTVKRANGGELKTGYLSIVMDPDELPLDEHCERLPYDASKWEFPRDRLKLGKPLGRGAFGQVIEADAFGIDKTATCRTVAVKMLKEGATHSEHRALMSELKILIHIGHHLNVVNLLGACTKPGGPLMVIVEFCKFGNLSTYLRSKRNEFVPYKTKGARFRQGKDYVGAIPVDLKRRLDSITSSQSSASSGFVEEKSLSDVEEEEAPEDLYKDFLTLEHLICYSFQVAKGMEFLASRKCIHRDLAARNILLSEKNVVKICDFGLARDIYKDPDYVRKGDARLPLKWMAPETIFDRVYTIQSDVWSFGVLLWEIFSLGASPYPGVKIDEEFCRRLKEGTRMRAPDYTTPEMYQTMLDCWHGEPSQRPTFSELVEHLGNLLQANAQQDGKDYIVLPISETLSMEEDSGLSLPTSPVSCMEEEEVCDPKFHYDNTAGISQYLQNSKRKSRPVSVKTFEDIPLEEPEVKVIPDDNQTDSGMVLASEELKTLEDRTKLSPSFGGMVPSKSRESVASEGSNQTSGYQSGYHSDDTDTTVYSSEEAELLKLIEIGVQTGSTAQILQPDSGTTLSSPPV

[37] = Volume of distribution in male rat at 25 mg/kg, po and 2 mg/kg, iv; type: ADME, organism-based; settings: in vivo, read-out: Vdss
[38] = as §1; type: ADME, organism-based; settings: in vivo; remark: listed apart in the source
[39] = Volume of distribution in male dog; type: ADME, organism-based, Canis lupus familiaris; settings: male, in vivo, read-out: Vdss
[40] = Clearance in male dog; type: ADME, organism-based, Canis lupus familiaris; settings: in vivo
[41] = Terminal half life in po dosed human; type: ADME, organism-based; settings: in vivo, read-out: beta t1/2 (converted)
[42] = target: Cyclin-dependent kinase 2 (Homo sapiens, UniProt P24941); assay: Inhibition of CDK2 by SPA
[43] = tested on: HUVEC; assay: Inhibition of FGF-stimulated HUVEC cell growth; type: functional, cell-based; settings: Homo sapiens
[44] = target: Vascular endothelial growth factor receptor 3 (Homo sapiens, UniProt P35916); assay: Inhibition of FLT4 by ELISA
Sequence of Vascular endothelial growth factor receptor 3 (P35916 whole entry): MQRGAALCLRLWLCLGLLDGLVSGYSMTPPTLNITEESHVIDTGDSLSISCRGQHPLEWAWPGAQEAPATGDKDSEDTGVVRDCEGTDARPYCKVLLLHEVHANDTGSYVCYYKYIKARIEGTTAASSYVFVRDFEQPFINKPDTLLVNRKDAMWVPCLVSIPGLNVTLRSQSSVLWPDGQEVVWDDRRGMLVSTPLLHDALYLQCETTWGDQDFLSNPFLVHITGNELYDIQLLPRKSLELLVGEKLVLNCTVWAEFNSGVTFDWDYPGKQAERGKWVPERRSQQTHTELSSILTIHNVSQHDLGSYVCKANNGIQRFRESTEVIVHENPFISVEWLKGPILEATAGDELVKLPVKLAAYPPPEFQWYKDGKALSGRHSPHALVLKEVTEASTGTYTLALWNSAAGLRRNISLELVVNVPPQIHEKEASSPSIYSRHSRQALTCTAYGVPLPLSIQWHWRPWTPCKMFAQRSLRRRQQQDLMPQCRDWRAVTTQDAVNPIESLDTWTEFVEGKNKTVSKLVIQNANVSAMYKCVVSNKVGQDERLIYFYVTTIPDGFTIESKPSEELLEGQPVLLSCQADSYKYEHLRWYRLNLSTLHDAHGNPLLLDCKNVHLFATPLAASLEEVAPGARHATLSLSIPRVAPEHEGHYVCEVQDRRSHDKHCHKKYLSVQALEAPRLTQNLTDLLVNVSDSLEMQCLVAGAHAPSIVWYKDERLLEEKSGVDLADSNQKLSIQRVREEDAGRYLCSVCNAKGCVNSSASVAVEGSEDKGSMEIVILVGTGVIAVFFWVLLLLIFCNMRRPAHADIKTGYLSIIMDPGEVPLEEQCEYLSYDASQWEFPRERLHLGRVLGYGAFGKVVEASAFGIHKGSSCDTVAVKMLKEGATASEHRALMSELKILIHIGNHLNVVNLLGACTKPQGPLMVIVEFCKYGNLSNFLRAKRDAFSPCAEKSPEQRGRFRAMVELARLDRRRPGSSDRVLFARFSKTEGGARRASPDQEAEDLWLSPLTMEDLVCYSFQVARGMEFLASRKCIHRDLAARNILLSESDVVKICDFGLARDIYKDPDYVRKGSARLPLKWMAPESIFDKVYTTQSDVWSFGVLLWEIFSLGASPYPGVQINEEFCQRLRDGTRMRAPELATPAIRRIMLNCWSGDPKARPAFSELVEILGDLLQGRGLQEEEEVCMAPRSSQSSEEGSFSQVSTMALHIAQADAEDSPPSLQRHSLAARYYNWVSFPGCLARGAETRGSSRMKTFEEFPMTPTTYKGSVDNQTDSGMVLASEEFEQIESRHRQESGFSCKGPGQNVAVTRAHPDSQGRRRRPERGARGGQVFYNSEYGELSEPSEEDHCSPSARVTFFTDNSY

CN1CCN(CCOc2cc(OC3CCOCC3)c3c(Nc4c(Cl)ccc5c4OCO5)ncnc3c2)CC1 [SARACATINIB]
IC50 [1]: > 10 µM | clearance [2]: 20 mL/min/kg | IC50 [3]: 0.84 µM | IC50 [4]: > 10 µM | half-life [5]: 7 h | IC50 [6]: > 10 µM | Vd [7]: 10 L/kg | IC50 [8]: > 100 µM | pKa [9]: 7.98 | IC50 [10]: 10 µM | Papp A→B [11]: > 30 ×10⁻⁶ cm/s | clearance [12]: 16.7 mL/min/kg | half-life [13]: 5 h | inhibition at 1 µM [14]: 70% | fraction unbound [15]: 0.14 | IC50 [16]: > 5 µM | IC50 [17]: 0.22 µM | IC50 [18]: > 10 µM | inhibition in vivo at 20 mg/kg/day [19]: > 80% | fraction unbound [20]: 0.09 | logD [21]: 2.9 | bioavailability [22]: > 50% | AUC(0-t) at 24 h [23]: 12000 ng·h/mL | solubility [24]: 240 µM (≈ 130 µg/mL) | bioavailability [25]: 79% | IC50 [26]: > 10 µM | inhibition in vivo at 20 mg/kg/day [27]: > 80% | IC50 [28]: > 10 µM | bioavailability [29]: 92% | fraction unbound [30]: 0.13 | IC50 [31]: 0.14 µM | inhibition in vivo at 6 mg/kg/day [32]: > 95% | IC50 [33]: > 10 µM | IC50 [34]: 14 µM | IC50 [35]: > 10 µM | IC50 [36]: 20.9 µM | Vd [37]: 10 L/kg | half-life [38]: 5 h | Vd [39]: 11.6 L/kg | clearance [40]: 11.7 mL/min/kg | half-life [41]: 40 h | IC50 [42]: 10 µM | IC50 [43]: > 5 µM | IC50 [44]: > 10 µM
